The subject of assay [1] is Bacillus cereus. Put plainly: Antibacterial activity against Bacillus cereus CMCC 63302 incubated overnight by CLSI protocol based microdilution assay. Type of assay: functional. Background: Broth dilution looks for growth in wells or tubes with falling amounts of substance.
The test system of assay [2] is Staphylococcus aureus. Briefly: Antibacterial activity against Staphylococcus aureus CMCC 26003 incubated overnight by CLSI protocol based microdilution assay.
The subject of assay [3] is Staphylococcus aureus. Briefly: Bactericidal activity against methicillin-resistant Staphylococcus aureus JCSC 4469 measured after 24 hrs by sub-culturing. The assay is classed as functional. As to conditions: JCSC 4469, 24 h.
Assay [4] relates to Staphylococcus aureus. Put plainly: Bactericidal activity against methicillin-resistant Staphylococcus aureus JCSC 4744 measured after 24 hrs by sub-culturing. As to conditions: JCSC 4744, 24 h. The assay is classed as functional.
Assay [5] concerns Staphylococcus aureus. Briefly: Bactericidal activity against Staphylococcus aureus CMCC 26003 measured after 24 hrs by sub-culturing. As to conditions: CMCC 26003, 24 h.
Another assay has as its system Escherichia coli. Put plainly: Antibacterial activity against Escherichia coli ATCC 8739 incubated overnight by CLSI protocol based microdilution assay. The assay is classed as functional.
The test system of assay [6] is Staphylococcus aureus. Put plainly: Antibacterial activity against methicillin-resistant Staphylococcus aureus JCSC 4469 incubated overnight by CLSI protocol based microdilution assay. Type of assay: functional.
Assay [7] deals with Staphylococcus aureus. Briefly: Bactericidal activity against methicillin-resistant Staphylococcus aureus JCSC 4744 assessed as reduction in cell survival by measuring colony forming units at MIC measured within 4 hrs by time-kill assay. Type of assay: functional.
For assay [8], the system named is Staphylococcus aureus. Briefly: Antibacterial activity against methicillin-resistant Staphylococcus aureus JCSC 4744 incubated overnight by CLSI protocol based microdilution assay. Type of assay: functional.
The test system of assay [9] is Staphylococcus aureus. Put plainly: Bactericidal activity against methicillin-resistant Staphylococcus aureus JCSC 4744 assessed as reduction in cell survival by measuring colony forming units at MIC measured within 4 hrs by time-kill assay relative to control. Type of assay: functional.
Assay [10] concerns Staphylococcus aureus. Put plainly: Disruption of membrane integrity in methicillin-reisitant Staphylococcus aureus JCSC 4744 at 10 ug/ml measured within 2 mins by SYTOX-greeen-based fluorescence assay. The assay is classed as functional, organism-based.
Assay [11] has as its system Staphylococcus aureus. Briefly: Induction of cell lysis in methicillin-resistant Staphylococcus aureus JCSC 4744 assessed as formation of membrane disruption at 8 fold MIC after 4 hrs by scanning electron microscopy. The assay is classed as functional, organism-based.
Assay [12] deals with Staphylococcus aureus. Put plainly: Induction of cell lysis in methicillin-resistant Staphylococcus aureus JCSC 4744 assessed as formation of membrane fissures at 8 fold MIC after 4 hrs by scanning electron microscopy. Type of assay: functional, organism-based.
Assay [13] relates to Staphylococcus aureus. Briefly: Bactericidal activity against methicillin-resistant Staphylococcus aureus JCSC 4744 assessed as reduction in cell survival at 8 fold MIC measured after 24 hrs by time-kill assay. The assay is classed as functional, organism-based.
The subject of assay [14] is Staphylococcus aureus. Put plainly: Disruption of membrane integrity in methicillin-reisitant Staphylococcus aureus JCSC 4744 measured after 4 hrs by SYTOX-greeen-based fluorescence assay. The assay is classed as functional, organism-based.
In assay [15] the test system is Bacillus cereus. Put plainly: Bactericidal activity against Bacillus cereus CMCC 63302 measured after 24 hrs by sub-culturing. Type of assay: functional. As to conditions: CMCC 63302, 24 h.
The subject of assay [16] is Staphylococcus aureus. Briefly: Bactericidal activity against methicillin-resistant Staphylococcus aureus JCSC 4744 assessed as reduction in cell survival by measuring colony forming units at MIC after 24 hrs by time-kill assay relative to control. Type of assay: functional.
For assay [17], the system named is Staphylococcus aureus. Put plainly: Induction of cytoplasmic membrane depolarization in methicillin-resistant Staphylococcus aureus JCSC 4744 at 0.5 to 8 fold MIC by DiSC3-5 dye-based fluorescence assay. Type of assay: functional, organism-based.

≈ marks a conversion by molar mass, not a printed value. Calls of active or inactive are those of the source. The rule behind the calls is not given here.

Usually MIC stands for the least concentration at which growth counts as inhibited. The term MBC denotes the lowest tested concentration that kills the bacteria rather than only halting them. Low readings indicate greater bactericidal potency, high ones weaker bactericidal potency.

Regarding `CN[C@H](CC(C)C)C(=O)N[C@H]1C(=O)N[C@@H](CC(N)=O)C(=O)N[C@H]2C(=O)N[C@H]3C(=O)N[C@H](C(=O)N[C@H](C(=O)O)c4cc(O)cc(O)c4-c4cc3ccc4O)[C@H](O)c3ccc(c(Cl)c3)Oc3cc2cc(c3O[C@@H]2O[C@H](CO)[C@@H](O)[C@H](O)[C@H]2O[C@H]2C[C@](C)(N)[C@H](O)[C@H](C)O2)Oc2ccc(cc2Cl)[C@H]1O` [VANCOMYCIN], the MIC with Bacillus cereus [1] is 50 µg/mL (≈ 34.5 µM); in the assay with Staphylococcus aureus [2], 1.56 µg/mL (≈ 1.08 µM); in the assay with Escherichia coli it was 50 µg/mL (≈ 34.5 µM); in the assay on Staphylococcus aureus [6], 0.78 µg/mL (≈ 0.538 µM); with Staphylococcus aureus [8], 0.78 µg/mL (≈ 0.538 µM). For the same molecule, the MBC against Staphylococcus aureus [3], in the assay with Staphylococcus aureus [4] and against Staphylococcus aureus [5] was 2.5 µg/mL (≈ 1.73 µM) in each case. Further, the Activity in the assay on Staphylococcus aureus [7] is reported as 2 log10CFU/ml. For the same molecule, the “inhibition (INH)” value in the assay with Staphylococcus aureus [9] came out at 99%.
Take `CC[C@H](C)[C@H](NC(=O)CN)C(=O)NCC(=O)N[C@@H](C)C(=O)N[C@H](C(=O)N[C@@H](CC(C)C)C(=O)N[C@@H](CCCCN)C(=O)N[C@H](C(=O)N[C@@H](CC(C)C)C(=O)N[C@H](C(=O)N[C@H](C(=O)NCC(=O)N[C@@H](CC(C)C)C(=O)N1CCC[C@H]1C(=O)N[C@@H](C)C(=O)N[C@@H](CC(C)C)C(=O)N[C@H](C(=O)N[C@@H](CO)C(=O)N[C@@H](Cc1c[nH]c2ccccc12)C(=O)N[C@H](C(=O)N[C@@H](CCCCN)C(=O)N[C@@H](CCCNC(=N)N)C(=O)N[C@@H](CCCCN)C(=O)N[C@@H](CCCNC(=N)N)C(=O)N[C@@H](CCC(N)=O)C(=O)N[C@@H](CCC(N)=O)C(N)=O)[C@@H](C)CC)[C@@H](C)CC)[C@@H](C)O)[C@@H](C)O)C(C)C)C(C)C`: the outcome with Staphylococcus aureus [10] was Active.
As to `COc1cc(O)c(C(=O)CC(C)C)c2c1[C@]1(O)C(O)=C(C(=O)C(C)C)C(=O)C[C@]1(OC)O2`, the outcome with Staphylococcus aureus [11], in the assay with Staphylococcus aureus [12], with Staphylococcus aureus [13], in the assay on Staphylococcus aureus [14] and in the assay on Staphylococcus aureus [17] was Active. For the same molecule, the MIC was 25 µg/mL (≈ 55.7 µM) in the assay with Bacillus cereus [1]; 25 µg/mL (≈ 55.7 µM) in the assay on Staphylococcus aureus [2]; > 100 µg/mL in the assay with Escherichia coli; 3.12 µg/mL (≈ 6.96 µM) in the assay with Staphylococcus aureus [6]; 3.12 µg/mL (≈ 6.96 µM) with Staphylococcus aureus [8]. In addition, the MBC against Staphylococcus aureus [3] turned out to be 6.25 µg/mL (≈ 13.9 µM); against Staphylococcus aureus [4] it was 6.25 µg/mL (≈ 13.9 µM); in the assay on Staphylococcus aureus [5] it was 50 µg/mL (≈ 111 µM); with Bacillus cereus [15], 50 µg/mL (≈ 111 µM). The “inhibition (INH)” value in the assay with Staphylococcus aureus [16] was 100%; with Staphylococcus aureus [9], 99%. The Activity with Staphylococcus aureus [7] is recorded as 2 log10CFU/ml.
For `COC1=C(C(=O)CC(C)C)C(=O)C(O)C1(C)C` (centres undefined), the result in the assay on Staphylococcus aureus [11], with Staphylococcus aureus [12], with Staphylococcus aureus [14] and in the assay on Staphylococcus aureus [17] was Active. Moreover, the MIC with Bacillus cereus [1] was 12.5 µg/mL (≈ 52 µM); against Staphylococcus aureus [2], 3.12 µg/mL (≈ 13 µM); with Escherichia coli, > 100 µg/mL; against Staphylococcus aureus [6] it was 3.12 µg/mL (≈ 13 µM); against Staphylococcus aureus [8], 1.56 µg/mL (≈ 6.49 µM). The MBC against Staphylococcus aureus [3] is 6.25 µg/mL (≈ 26 µM); with Staphylococcus aureus [4], 3.12 µg/mL (≈ 13 µM); against Staphylococcus aureus [5] it was 6.25 µg/mL (≈ 26 µM); in the assay with Bacillus cereus [15], 25 µg/mL (≈ 104 µM). Moreover, the “inhibition (INH)” value with Staphylococcus aureus [16] is 100%; with Staphylococcus aureus [9] it was 99%. The Activity in the assay on Staphylococcus aureus [7] came out at 2 log10CFU/ml.

The values are drawn from ChEMBL document CHEMBL4334453, “Callistemonols A and B, Potent Antimicrobial Acylphloroglucinol Derivatives with Unusual Carbon Skeletons from Callistemon viminalis” (2019).
